Experimental data from US9822099B2, “Triazole derivatives” (priority 2013, dated 2017).
Marks after values point to notes of the source that are not given here.

Experiments:
Botrytis cinerea = test: Example A: in vivo preventive test on Botrytis cinerea (grey mould); settings: gherkin plants, preventive spray, evaluated 4 to 5 days after inoculation
Experimental: (§1) The young plants of gherkin are treated by spraying the active ingredient prepared as described above. Control plants are treated only with an aqueous solution of acetone/Dimethyl sulfoxide/Tween®. After 24 hours, the plants are contaminated by spraying the leaves with an aqueous suspension of Botrytis cinerea spores.

Puccinia recondita = test: Example B: in vivo preventive test on Puccinia recondita (brown rust on wheat); settings: wheat plants, preventive spray, evaluated 11 days after inoculation
Experimental: as §1, with “wheat” for “gherkin”, “Puccinia recondita” for “Botrytis cinerea”

Septoria tritici = test: Example D: in vivo preventive test on Septoria tritici (leaf spot on wheat); settings: wheat plants, preventive spray, evaluated 24 days after inoculation
Experimental: as §1, with “wheat” for “gherkin”, “Septoria tritici” for “Botrytis cinerea”

Sphaerotheca fuliginea = test: Example E: in vivo preventive test on Sphaerotheca fuliginea (powdery mildew on cucurbits); settings: gherkin plants, preventive spray, evaluated 15 days after inoculation
Experimental: as §1, with “Sphaerotheca fuliginea” for “Botrytis cinerea”

Uromyces appendiculatus = test: Example F: in vivo preventive test on Uromyces appendiculatus (bean rust); settings: bean plants, preventive spray, evaluated 11 days after inoculation
Experimental: as §1, with “bean” for “gherkin”, “Uromyces appendiculatus” for “Botrytis cinerea”

[1] = pH 2.7
[2] = tested on: Blumeria graminis f. sp. hordei; test: Example G: Blumeria test (barley)/preventive; type: in vivo; settings: 500 ppm of active ingredient, preventive, evaluated 7 days after inoculation
Experimental: (§2) Solvent: 49 parts by weight of N,N-dimethylacetamide Emulsifier: 1 part by weight of alkylaryl polyglycol ether To produce a suitable preparation of active compound, 1 part by weight of active compound or active compound combination is mixed with the stated amounts of solvent and emulsifier, and the concentrate is diluted with water to the desired concentration. To test for preventive activity, young plants are sprayed with the preparation of active compound or active compound combination at the stated rate of application. After the spray coating has been dried, the plants are dusted with spores of Blumeria graminis f. sp. hordei.

Fusarium graminearum = type: in vivo; settings: 500 ppm of active ingredient; barley, preventive; evaluated 5 days after inoculation
[3] = tested on: Fusarium nivale (var. majus); test: Example J: Fusarium nivale (var. majus)-test (wheat)/preventive; type: in vivo; settings: 500 ppm of active ingredient, preventive, evaluated 5 days after inoculation
Experimental: Solvent: 49 parts by weight of N,N-dimethylacetamide
Emulsifier: 1 part by weight of alkylaryl polyglycol ether
To produce a suitable preparation of active compound, 1 part by weight of active compound or active compound combination is mixed with the stated amounts of solvent and emulsifier, and the concentrate is diluted with water to the desired concentration.
To test for preventive activity, young plants are sprayed with the preparation of active compound or active compound combination at the stated rate of application.
After the spray coating has been dried, the plants are slightly injured by using a sandblast and afterwards they are sprayed with a conidia suspension of Fusarium nivale (var. majus).
The plants are placed in the greenhouse under a translucent incubation cabinet at a temperature of approximately 10° C. and a relative atmospheric humidity of approximately 100%.
The test is evaluated 5 days after the inoculation. 0% means an efficacy which corresponds to that of the untreated control, while an efficacy of 100% means that no disease is observed.

Pyricularia oryzae = type: in vivo; settings: 500 ppm of active ingredient; rice, preventive; evaluated 8 days after inoculation
Phakopsora pachyrhizi = test: Example L: Phakopsora test (soybeans)/preventive; type: in vivo; settings: 10 ppm of active ingredient, preventive, evaluated 7 days after inoculation
Leptosphaeria nodorum = test: Example K: Leptosphaeria nodorum test (wheat)/preventive; type: in vivo; settings: 500 ppm of active ingredient, preventive, evaluated 8 days after inoculation
Experimental: as §2, with “sprayed” for “dusted”, “a spore suspension” for “spores”, “Leptosphaeria nodorum.” for “Blumeria graminis f. sp. hordei.”

Pyrenophora teres = test: Example C: in vivo preventive test on Pyrenophora teres (net blotch on barley); settings: 500 ppm of active ingredient; barley plants, preventive spray; evaluated 14 days after inoculation
Experimental: as §1, with “barley” for “gherkin”, “Pyrenophora teres” for “Botrytis cinerea”

SMILES | Eff. % (Botrytis cinerea; 500 ppm of active ingredient) [%] | Eff. % (Puccinia recondita; 500 ppm of active ingredient) [%] | Eff. % (Septoria tritici; 500 ppm of active ingredient) [%] | Eff. % (Sphaerotheca fuliginea; 500 ppm of active ingredient) [%] | Eff. % (Uromyces appendiculatus; 500 ppm of active ingredient) [%] | LogP [1] | Eff. % (Botrytis cinerea; 100 ppm of active ingredient) [%] | Eff. % (Puccinia recondita; 100 ppm of active ingredient) [%] | Eff. % (Septoria tritici; 100 ppm of active ingredient) [%] | Eff. % (Sphaerotheca fuliginea; 100 ppm of active ingredient) [%] | Eff. % (Uromyces appendiculatus; 100 ppm of active ingredient) [%] | Eff. % [2] [%] | Eff. % (Fusarium graminearum) [%] | Eff. % [3] [%] | Eff. % (Pyricularia oryzae) [%] | Eff. % (Phakopsora pachyrhizi) [%] | Eff. % (Leptosphaeria nodorum) [%] | Eff. % (Pyrenophora teres) [%]
OC(Cc1ncccc1Cl)(Cn1cncn1)C1(Cl)CC1 (centres unmarked) [Example I-2] | 94 | 94 | 100 | 95 | 100 | 2.28^[a] | – | – | – | – | – | – | – | – | – | – | – | –
CC(Oc1ccc(Cl)cc1)C(O)(Cc1cccnc1Cl)Cn1cncn1 (centres unmarked) [Example I-16] | – | – | – | – | – | – | 87 | 75 | 98 | 100 | 91 | – | – | – | – | – | – | –
OC(Cc1ccnc2ccccc12)(Cn1cncn1)C1(Cl)CC1 (centres unmarked) [Example I-27] | – | – | – | – | – | 1.00^[a] | 98 | – | – | 100 | 98 | 100 | 100 | 93 | 89 | – | – | –
OC(Cc1nccnc1Cl)(Cn1cncn1)C1(Cl)CC1 (centres unmarked) [Example I-30] | – | – | – | – | – | 1.86^[a] | – | – | – | 94 | 100 | – | – | – | – | 75 | – | –
OC(Cc1ccc(Cl)c(Cl)n1)(Cn1cncn1)C1(Cl)CC1 (centres unmarked) [Example I-31] | – | – | – | – | – | 2.66^[a] | – | 83 | 100 | 90 | 94 | 100 | – | 75 | – | – | 88 | –
OC(Cc1ccnc(Cl)c1)(Cn1cncn1)C1(F)CC1 (centres unmarked) [Example I-33] | – | 93 | 100 | 100 | 100 | 1.44^[a] | 94 | – | – | – | – | 100 | 100 | 93 | – | – | 86 | 75
CC(CF)(CF)C(O)(Cc1ccnc(Cl)c1)Cn1cncn1 (centres unmarked) [Example I-36] | – | 97 | 100 | 100 | 100 | 1.66^[a] | – | – | – | – | – | 100 | 94 | – | – | – | – | 88
OC(Cc1cc(Cl)ncc1F)(Cn1cncn1)C1(Cl)CC1 (centres unmarked) [Example I-40] | 97 | 97 | 100 | 100 | 100 | 2.06^[a] | – | – | – | – | – | 100 | 100 | 86 | – | 73 | 100 | 100
OC(Cc1ccncn1)(Cn1cncn1)C1(Cl)CC1 (centres unmarked) [Example I-50] | 100 | 94 | 100 | 100 | 100 | 1.10^[a] | – | – | – | – | – | – | – | – | – | – | – | 79
OC(Cc1cncc(Oc2ccc(Cl)cc2)n1)(Cn1cncn1)C1(Cl)CC1 (centres unmarked) [Example I-56] | – | 86 | 92 | 100 | 96 | 2.88^[a] | – | – | – | – | – | – | – | – | – | – | – | 88
OC(Cc1ncnc(Cl)c1Cl)(Cn1cncn1)C1(Cl)CC1 (centres unmarked) [Example I-57] | – | 86 | 92 | 95 | 96 | 2.28^[a] | – | – | – | – | – | 100 | – | 71 | – | – | – | 88
